# Assay results: patent publication US7259293B2, “Expression of eukaryotic peptides in plant plastids” (priority 1998, dated 2007)
# How the values were obtained:
# [1] = test system: homoplasmic tobacco line 38773-6; assay: In vitro glyphosate tolerance, shoot regeneration from leaf explants, line 38773-6; assay type: cell-based; conditions: tobacco plants expressing EPSPS in plastids (pMON38773)
# Method: A transplastomic tobacco line homoplasmic for the construct pMON38773 was tested in vitro to determine the highest level of glyphosate tolerance. Explant tissue was prepared from leaf pieces of nontransgenic wild type tobacco control, Havanna, plants and the homoplasmic tobacco line 38773-6 and cultured for regeneration of shoots on TSO medium (described above) supplemented with glyphosate levels of 50 μM, 75 μM, 100 μM, 150 μM and 200 μM. The number of explants producing shoots was determined at 3 weeks and 6 weeks after explant preparation and culturing on glyphosate containing medium.
# [2] = test system: Wild type tobacco (nontransformed control plants); assay: Whole plant glyphosate spray tolerance, wild type; assay type: in vivo; conditions: concentrations as low as 16 oz/Acre
# [3] = test system: homoplasmic tobacco plants of the line 38773-6; assay: Whole plant glyphosate spray tolerance, line 38773-6; assay type: in vivo
# Method: Homoplasmic tobacco plants of the line 38773-6 are sprayed with glyphosate using a track sprayer at concentrations corresponding to 0 oz/acre, 16 oz/acre, 32 oz/acre and 64 oz/acre to test for whole plant tolerance. Plant height was measured before and after spraying with glyphosate. The vegetative injury data was collected two weeks after spraying, while the reproductive injury data was collected at plant maturity.
# Tolerance is characterized by the continued growth and greening of tissues sprayed with glyphosate. However, as the concentration of glyphosate applied increased, there was a corresponding increase in the level of vegetative injury.
# Nb2 cell line = assay: Nb2 cell proliferation bioactivity assay; assay type: cell-based, rat; conditions: 48 hrs incubation, MTS absorbance
# Method: Bioactivity of the pH adjusted and centrifuged extract was tested using cells from an Nb2 cell line. These cells proliferate in the presence of growth hormone and other […] type compounds. The assay involves putting various concentrations of growth hormone-containing extract into a 96 well plate. Then a constant amount of cells are added to each well. The plate is incubated for 48 hrs and then a reagent called MTS is added. Metabolizing cells take up the MTS and convert it to a blue colored substance. The more cells there are the more blue color in the well. The blue color is measured using a spectrophotometer. The number of cells should be proportional to the concentration of growth hormone in the media. At some high concentration one expects that the cells will become saturated with growth hormone and that the dose response will level off. At very low hGH concentrations essentially no enhanced growth is seen.
# To test this hypothesis in vitro, a rat lymphoma cell line, Nb2, that proliferates in the presence of somatotropin (hGH) and other […] type compounds was employed. Proliferation of this cell line is proportional to the amount of somatotropin in the culture medium, until saturation is reached. The ion exchange column eluate from transplastomic Nt-4838 and Nt-38794 plants or identically treated wild-type plants was added to the Nb2 cell culture medium. As control, E. coli produced, refolded hGH was used.
# [4] = in vivo; cited from earlier work
compound,measurement,setting,value
"O=C(O)CNCP(=O)(O)O [Glyphosate, N-phosphonomethylglycine]",glyphosate level tolerated (shoot regeneration),[1],at least 200 μM
same,susceptibility to glyphosate spray,[2],highly susceptible
same,"glyphosate concentration tolerated, whole plant spray","[3]; homoplasmic tobacco lines, initial results, vegetative tissue injury",16 oz/acre
same,"glyphosate level tolerated, whole plant spray",[3]; subsequent experiments with additional transformed lines,64 oz/Acre
same,"glyphosate level with a good level of tolerance, whole plant spray",[3]; transplastomic lines,32 oz/Acre
"alanine-hST: hGH with alanine N-terminus, from Nt4838 extracts, methionine removed by aminopeptidase",proliferation of the Nb2 cell line (bioactivity),Nb2 cell line,also bioactive
chloroplast derived hGH: human growth hormone expressed in tobacco plastids,proliferation of the Nb2 cell line (bioactivity),Nb2 cell line,biologically active
same,proliferation of the Nb2 cell line (bioactivity),Nb2 cell line; listed as hGH expressed from a plant plastid,sigmoidal shape when graphed as absorbance versus hGH concentration
"recombinant somatotropin: recombinant somatotropin produced in E. coli, N-terminal methionine or phenylalanine (Moore et al. 1988)",pharmacokinetics,[4],equivalent pharmacokinetics
